Molecular target: Sodium channel protein type 9 subunit alpha (Homo sapiens, UniProt Q15858)
Assay: Inhibition of human Nav1.7 expressed in HEK293 cells at holding potential of -125 mV […] by patchxpress-based electrophysiology assay
Format: cell-based

Sequence of Sodium channel protein type 9 subunit alpha (Q15858 whole entry): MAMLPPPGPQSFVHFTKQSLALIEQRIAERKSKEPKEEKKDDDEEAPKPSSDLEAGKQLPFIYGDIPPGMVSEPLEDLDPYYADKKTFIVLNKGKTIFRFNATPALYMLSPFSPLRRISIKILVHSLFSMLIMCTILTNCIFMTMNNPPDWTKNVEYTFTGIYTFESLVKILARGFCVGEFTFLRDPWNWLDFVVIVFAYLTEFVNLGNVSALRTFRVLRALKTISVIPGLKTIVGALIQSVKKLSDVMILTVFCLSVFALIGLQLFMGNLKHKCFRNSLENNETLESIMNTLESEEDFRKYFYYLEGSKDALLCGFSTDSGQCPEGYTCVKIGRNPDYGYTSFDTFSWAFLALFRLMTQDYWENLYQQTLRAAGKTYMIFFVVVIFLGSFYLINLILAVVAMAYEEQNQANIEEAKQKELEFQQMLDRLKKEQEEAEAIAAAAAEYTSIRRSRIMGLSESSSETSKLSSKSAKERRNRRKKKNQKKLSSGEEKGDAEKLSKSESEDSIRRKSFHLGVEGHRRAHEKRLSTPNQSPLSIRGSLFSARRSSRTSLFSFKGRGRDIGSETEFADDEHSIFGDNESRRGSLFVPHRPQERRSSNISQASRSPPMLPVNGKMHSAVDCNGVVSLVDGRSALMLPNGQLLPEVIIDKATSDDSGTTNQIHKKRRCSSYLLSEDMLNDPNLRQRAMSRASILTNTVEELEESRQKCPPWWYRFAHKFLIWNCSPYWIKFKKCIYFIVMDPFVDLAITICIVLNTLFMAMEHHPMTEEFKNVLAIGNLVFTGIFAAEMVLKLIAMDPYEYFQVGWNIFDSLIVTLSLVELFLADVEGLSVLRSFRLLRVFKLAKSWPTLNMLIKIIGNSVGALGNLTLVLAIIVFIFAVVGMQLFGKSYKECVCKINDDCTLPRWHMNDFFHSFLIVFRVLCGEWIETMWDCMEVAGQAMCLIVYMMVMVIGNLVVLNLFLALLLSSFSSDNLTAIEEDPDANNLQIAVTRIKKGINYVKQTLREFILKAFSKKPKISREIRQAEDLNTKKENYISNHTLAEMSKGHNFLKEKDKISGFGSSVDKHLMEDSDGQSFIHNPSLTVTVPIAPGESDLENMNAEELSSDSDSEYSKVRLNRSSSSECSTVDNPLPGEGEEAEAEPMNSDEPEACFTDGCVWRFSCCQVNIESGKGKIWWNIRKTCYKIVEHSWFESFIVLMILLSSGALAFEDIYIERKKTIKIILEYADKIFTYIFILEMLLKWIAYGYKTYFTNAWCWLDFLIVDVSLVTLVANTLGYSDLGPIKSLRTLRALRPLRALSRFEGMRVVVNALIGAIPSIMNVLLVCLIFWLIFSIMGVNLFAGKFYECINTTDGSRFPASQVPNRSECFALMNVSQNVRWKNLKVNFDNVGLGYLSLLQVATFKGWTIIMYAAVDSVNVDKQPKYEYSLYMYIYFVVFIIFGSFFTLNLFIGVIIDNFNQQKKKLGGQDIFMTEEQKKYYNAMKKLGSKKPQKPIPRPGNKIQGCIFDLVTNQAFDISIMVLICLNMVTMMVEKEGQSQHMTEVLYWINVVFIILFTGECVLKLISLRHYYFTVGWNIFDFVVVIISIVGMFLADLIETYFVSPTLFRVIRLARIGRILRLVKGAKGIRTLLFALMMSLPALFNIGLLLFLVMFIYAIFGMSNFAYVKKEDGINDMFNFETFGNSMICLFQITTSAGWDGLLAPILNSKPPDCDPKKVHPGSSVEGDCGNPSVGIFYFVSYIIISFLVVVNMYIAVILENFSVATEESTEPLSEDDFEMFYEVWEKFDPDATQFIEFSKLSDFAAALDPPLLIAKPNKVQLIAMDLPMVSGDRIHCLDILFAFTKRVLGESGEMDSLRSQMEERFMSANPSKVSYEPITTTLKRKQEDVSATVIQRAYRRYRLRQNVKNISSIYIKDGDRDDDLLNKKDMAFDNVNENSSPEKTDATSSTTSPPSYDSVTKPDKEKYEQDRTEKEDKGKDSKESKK

SMILES	IC50 [nM]
C#CC[C@H](N)C(=O)N[C@@H](Cc1ccc(O)cc1)C(=O)N[C@H]1CSSC[C@@H]2NC(=O)[C@@H]3CSSC[C@@H](C(=O)N[C@@H](CCCNC(=N)N)C(=O)N[C@@H](CCCCN)C(=O)N[C@@H](CCC(=O)O)C(=O)N[C@H](C(N)=O)[C@@H](C)CC)NC(=O)[C@H](Cc4ccccc4)NC(=O)[C@H](CC(C)C)NC(=O)[C@H](CCCCN)NC(=O)[C@H](CSSC[C@H](NC(=O)[C@H]([C@@H](C)O)NC(=O)[C@H](Cc4c[nH]c5ccccc45)NC(=O)[C@H](CCCC)NC(=O)[C@H](Cc4c[nH]c5ccccc45)NC(=O)[C@H](CCCCN)NC(=O)[C@H](CCC(N)=O)NC1=O)C(=O)N[C@@H](CC(=O)O)C(=O)N[C@@H](CO)C(=O)N[C@@H](CCCCN)C(=O)N[C@@H](CCCNC(=N)N)C(=O)N[C@@H](C)C(=O)N3)NC(=O)[C@H](CCCNC(=N)N)NC(=O)[C@H](CC(C)C)NC(=O)CNC(=O)[C@H](CCC(=O)O)NC2=O	15
C#CC[C@H](N)C(=O)N[C@@H](Cc1ccc(O)cc1)C(=O)N[C@H]1CSSC[C@@H]2NC(=O)[C@@H]3CSSC[C@@H](C(=O)N[C@@H](CCCNC(=N)N)C(=O)N[C@@H](CCCCN)C(=O)N[C@@H](CCC(=O)O)C(=O)N[C@@H](CC4CCCCC4)C(N)=O)NC(=O)[C@H](Cc4c[nH]c5ccccc45)NC(=O)[C@H](CC(C)C)NC(=O)[C@H](CCCCN)NC(=O)[C@H](CSSC[C@H](NC(=O)[C@H]([C@@H](C)O)NC(=O)[C@H](Cc4c[nH]c5ccccc45)NC(=O)[C@H](CCCC)NC(=O)[C@H](Cc4c[nH]c5ccccc45)NC(=O)[C@H](CCCCN)NC(=O)[C@H](CCC(N)=O)NC1=O)C(=O)N[C@@H](CC(=O)O)C(=O)N[C@@H](CO)C(=O)N[C@@H](CCCCN)C(=O)N[C@@H](CCCNC(=N)N)C(=O)N[C@@H](C)C(=O)N3)NC(=O)[C@H](CCCNC(=N)N)NC(=O)[C@H](CC(C)C)NC(=O)CNC(=O)[C@H](CCC(=O)O)NC2=O	0.6
C#CC[C@H](N)C(=O)N[C@@H](Cc1ccc(O)cc1)C(=O)N[C@H]1CSSC[C@@H]2NC(=O)[C@@H]3CSSC[C@@H](C(=O)N[C@@H](CCCNC(=N)N)C(=O)N[C@@H](CCCCN)C(=O)N[C@@H](CCC(=O)O)C(=O)N[C@@H](Cc4ccccc4)C(N)=O)NC(=O)[C@H](Cc4c[nH]c5ccc(Br)cc45)NC(=O)[C@H](CC(C)C)NC(=O)[C@H](CCCCN)NC(=O)[C@H](CSSC[C@H](NC(=O)[C@H]([C@@H](C)O)NC(=O)[C@H](Cc4c[nH]c5ccccc45)NC(=O)[C@H](CCCC)NC(=O)[C@H](Cc4c[nH]c5ccccc45)NC(=O)[C@H](CCCCN)NC(=O)[C@H](CCC(N)=O)NC1=O)C(=O)N[C@@H](CC(=O)O)C(=O)N[C@@H](CO)C(=O)N[C@@H](CCCCN)C(=O)N[C@@H](CCCNC(=N)N)C(=O)N[C@@H](C)C(=O)N3)NC(=O)[C@H](CCCNC(=N)N)NC(=O)[C@H](CC(C)C)NC(=O)CNC(=O)[C@H](CCC(=O)O)NC2=O	1.1
C#CC[C@H](NC(=O)[C@@H](N)CCC(=O)O)C(=O)N[C@H]1CSSC[C@@H]2NC(=O)[C@@H]3CSSC[C@@H](C(=O)N[C@@H](CCCNC(=N)N)C(=O)N[C@@H](CCCCN)C(=O)N[C@@H](CCC(=O)O)C(=O)N[C@H](C(N)=O)[C@@H](C)CC)NC(=O)[C@H](Cc4c[nH]c5ccc(Br)cc45)NC(=O)[C@H](CC(C)C)NC(=O)[C@H](CCCCN)NC(=O)[C@H](CSSC[C@H](NC(=O)[C@H]([C@@H](C)O)NC(=O)[C@H](Cc4c[nH]c5ccccc45)NC(=O)[C@H](CCCC)NC(=O)[C@H](Cc4c[nH]c5ccccc45)NC(=O)[C@H](CCCCN)NC(=O)[C@H](CCC(N)=O)NC1=O)C(=O)N[C@@H](CC(=O)O)C(=O)N[C@@H](CO)C(=O)N[C@@H](CCCCN)C(=O)N[C@@H](CCCNC(=N)N)C(=O)N[C@@H](C)C(=O)N3)NC(=O)[C@H](CCCNC(=N)N)NC(=O)[C@H](CC(C)C)NC(=O)CNC(=O)[C@H](CCC(=O)O)NC2=O	0.3
C#CC[C@H](N)C(=O)N[C@@H](Cc1ccc(O)cc1)C(=O)N[C@H]1CSSC[C@@H]2NC(=O)[C@@H]3CSSC[C@@H](C(=O)N[C@@H](CCCNC(=N)N)C(=O)N[C@@H](CCCCN)C(=O)N[C@@H](CCC(=O)O)C(=O)N[C@H](C(N)=O)[C@@H](C)CC)NC(=O)[C@H](Cc4c[nH]c5ccccc45)NC(=O)[C@H](CC(C)C)NC(=O)[C@H](CCCCN)NC(=O)[C@H](CSSC[C@H](NC(=O)[C@H]([C@@H](C)O)NC(=O)[C@H](Cc4c[nH]c5ccccc45)NC(=O)[C@H](CCCC)NC(=O)[C@H](Cc4ccc5ccccc5c4)NC(=O)[C@H](CCCCN)NC(=O)[C@H](CCC(N)=O)NC1=O)C(=O)N[C@@H](CC(=O)O)C(=O)N[C@@H](CO)C(=O)N[C@@H](CCCCN)C(=O)N[C@@H](CCCNC(=N)N)C(=O)N[C@@H](C)C(=O)N3)NC(=O)[C@H](CCCNC(=N)N)NC(=O)[C@H](CC(C)C)NC(=O)CNC(=O)[C@H](CCC(=O)O)NC2=O	22
C#CC[C@H](N)C(=O)N[C@@H](Cc1ccc(O)cc1)C(=O)N[C@H]1CSSC[C@@H]2NC(=O)[C@@H]3CSSC[C@@H](C(=O)N[C@@H](CCCNC(=N)N)C(=O)N[C@@H](CCCCN)C(=O)N[C@@H](CCC(=O)O)C(=O)N[C@H](C(N)=O)[C@@H](C)CC)NC(=O)[C@H](Cc4c[nH]c5c(Br)cccc45)NC(=O)[C@H](CC(C)C)NC(=O)[C@H](CCCCN)NC(=O)[C@H](CSSC[C@H](NC(=O)[C@H]([C@@H](C)O)NC(=O)[C@H](Cc4c[nH]c5ccccc45)NC(=O)[C@H](CCCC)NC(=O)[C@H](Cc4c[nH]c5ccccc45)NC(=O)[C@H](CCCCN)NC(=O)[C@H](CCC(N)=O)NC1=O)C(=O)N[C@@H](CC(=O)O)C(=O)N[C@@H](CO)C(=O)N[C@@H](CCCCN)C(=O)N[C@@H](CCCNC(=N)N)C(=O)N[C@@H](C)C(=O)N3)NC(=O)[C@H](CCCNC(=N)N)NC(=O)[C@H](CC(C)C)NC(=O)CNC(=O)[C@H](CCC(=O)O)NC2=O	24
C#CC[C@H](N)C(=O)N[C@@H](Cc1ccc(O)cc1)C(=O)N[C@H]1CSSC[C@@H]2NC(=O)[C@@H]3CSSC[C@@H](C(=O)N[C@@H](CCCNC(=N)N)C(=O)N[C@@H](CCCCN)C(=O)N[C@@H](CCC(=O)O)C(=O)N[C@@H](CCc4ccccc4)C(N)=O)NC(=O)[C@H](Cc4c[nH]c5ccc(Br)cc45)NC(=O)[C@H](CC(C)C)NC(=O)[C@H](CCCCN)NC(=O)[C@H](CSSC[C@H](NC(=O)[C@H]([C@@H](C)O)NC(=O)[C@H](Cc4c[nH]c5ccccc45)NC(=O)[C@H](CCCC)NC(=O)[C@H](Cc4c[nH]c5ccccc45)NC(=O)[C@H](CCCCN)NC(=O)[C@H](CCC(N)=O)NC1=O)C(=O)N[C@@H](CC(=O)O)C(=O)N[C@@H](CO)C(=O)N[C@@H](CCCCN)C(=O)N[C@@H](CCCNC(=N)N)C(=O)N[C@@H](C)C(=O)N3)NC(=O)[C@H](CCCNC(=N)N)NC(=O)[C@H](CC(C)C)NC(=O)CNC(=O)[C@H](CCC(=O)O)NC2=O	1.1
C#CC[C@H](NC(=O)[C@H](C)N)C(=O)N[C@H]1CSSC[C@@H]2NC(=O)[C@@H]3CSSC[C@@H](C(=O)N[C@@H](CCCNC(=N)N)C(=O)N[C@@H](CCCCN)C(=O)N[C@@H](CCC(=O)O)C(=O)N[C@H](C(N)=O)[C@@H](C)CC)NC(=O)[C@H](Cc4c[nH]c5ccc(Br)cc45)NC(=O)[C@H](CC(C)C)NC(=O)[C@H](CCCCN)NC(=O)[C@H](CSSC[C@H](NC(=O)[C@H]([C@@H](C)O)NC(=O)[C@H](Cc4c[nH]c5ccccc45)NC(=O)[C@H](CCCC)NC(=O)[C@H](Cc4c[nH]c5ccccc45)NC(=O)[C@H](CCCCN)NC(=O)[C@H](CCC(N)=O)NC1=O)C(=O)N[C@@H](CC(=O)O)C(=O)N[C@@H](CO)C(=O)N[C@@H](CCCCN)C(=O)N[C@@H](CCCNC(=N)N)C(=O)N[C@@H](C)C(=O)N3)NC(=O)[C@H](CCCNC(=N)N)NC(=O)[C@H](CC(C)C)NC(=O)CNC(=O)[C@H](CCC(=O)O)NC2=O	1
